According to publication PMC8215855 (Journal of medicinal chemistry, 2020):
Blank lines part the entries; values can stand above or below the compound they belong to.

Tests used:
[1] = tested on: sickle cell disease model; settings: SCD mice; cited from earlier work
[2] = tested on: blood S1P levels; settings: rats dosed with 10 mg/kg; cited from earlier work
[3] = biological target: human SphK1; settings: read-out: human SphK1 Ki; cited from earlier work
[4] = biological target: mouse SphK2; settings: read-out: mouse SphK2 Ki; cited from earlier work
[5] = tested on: blood S1P concentration; settings: treatment in mice; cited from earlier work
[6] = Blood concentration of compound in mice after i.p. dose; assay type: in vivo; settings: single 10 mg/kg i.p., C57BL/6 male mice, LC-MS/MS
[7] = tested on: blood S1P levels; test: Blood S1P levels in mice after i.p. dose; assay type: in vivo; settings: single 10 mg/kg i.p., C57BL/6 male mice

SMILES: Cc1cc(CS(=O)(=O)c2ccccc2)cc(OCc2ccc(CN3CCC[C@@H]3CO)cc2)c1 [Compound 3a]
blood and plasma S1P levels [1]: reduced
erythrocyte sickling [1]: decreased

SMILES: CCCCCCCCc1ccc(-c2noc(C[C@@H]3CCCN3C(=N)N)n2)cc1 [Compound 4]
decrease of blood S1P levels [2]: about 80%

SMILES: Cc1ccc(S(=O)(=O)Nc2ccccc2/C=N/c2ccccc2NS(=O)(=O)c2ccc(C)cc2)cc1 [Compound 5]
Ki [3]: 27 ± 3 µM

SMILES: CCCCCCCCc1ccc(-c2noc([C@@H]3CCCN3C(=N)N)n2)cc1 [Compound 7]
Ki [4]: 1.3 µM

SMILES: CCCCCCCCOc1ccc(-c2noc([C@@H]3CCCN3C(=N)N)n2)cc1C(F)(F)F.Cl [Compound 8]
blood S1P concentration [5]: increase in blood S1P concentration

peak level of compound in blood [6]: ~ 8 μM
SMILES: Cl.N=C(N)N1CCC[C@H]1c1nc(-c2ccc(OCc3ccc(C(F)(F)F)cc3)c(C(F)(F)F)c2)no1 [Compound 10, (S)-2-(3-(3-(trifluoromethyl)-4-((4-(trifluoromethyl)benzyl)oxy)phenyl)-1,2,4-oxadiazol-5-yl)pyrrolidine-1-carboximidamide]
time blood S1P levels remained elevated [7]: up to 6 hours
increase of blood S1P levels ([7]; after 4 hours): nearly two-fold
